Earlier results in patent US8097267B2, “Moisture resistant container systems for rapidly bioavailable dosage forms” (APR Applied Pharma Research s.a., priority 2006, dated 2012).

Conditions: acidic environment

In the case of “[(2,6-dichloro-anilino)-2-phenyl]-2-acetic acid [diclofenac potassium]”, the precipitation is listed as “tendency to precipitate in an acidic environment”.
